From patent publication US20240117431A1, “STEM-CELL BASED BIOMARKER DISCOVERY” (THE REGENTS OF THE UNIVERSITY OF CALIFORNIA, priority 2020, published 2024)

Columns and labels:
Type in all cases: cell-based
[1] = molecular target: T1, wild-type (WT) TgUPRT in HEK cells (Toxoplasma gondii, UniProt Q26998); test: In-cell RNA incorporation by wild-type TgUPRT, streptavidin dot blot
T1 construct: 6xHis; expressed in transfected cells; host or cells: HEK293 (HEK293T)
Experimental: (§1) Transfection, labeling of cellular RNA and RNA isolation: After 48h seeding, HEK293 cells were transfected with 2.5 μg of TgUPRT WT or mutant plasmids (pKN-CMV-TgUPRT-WT or -Mutt to Mut17) per 5 cm plate using JetPrime Transfection reagent (Polyplus Transfection, France). At 40h post-transfection, cells were incubated with a final concentration of 200 μM at <1% DMSO from 400 mM stock of uracil analogs (5EU, 5VU, 5AU) or 200 mM SAMU stock for 5 h. For time course study, HEK cells were treated with 200 μM uracil analogs for 0 h, 0.5, 1, 3, 5, 12 and 24 hours. For titrating uracil analog concentration experiments, HEK cells were treated with 0 (DMSO), 50, 100, 200, 500 μM or 1 mM uracil analog for 5h. Treated HEK cells were subjected to total RNA extraction using 1 mL Trizol Reagent (Invitrogen) following the manufacturer instructions.
(§2) Biotinylation via CuAAC and IEDDA: Cu-mediated Azide-Alkyne cycloaddition (CuAAC) click reactions were performed in 50 μL reaction at 22° C. on a shaker for 30 min with click reaction cocktail containing 15 μg of total RNA, 1 mM biotin alkyne or biotin azide, fresh 4.6 mM THPTA to a final concentration of 1 mM, and fresh 10.6 mM sodium ascorbate (NaAsc) at final concentration of 1.77 mM, and 12 mM CuSO4 at final concentration of 200 μM in biotinylation reaction buffer (10 mM TrisHCI, 1 mM EDTA, pH7.4). The biotinylated RNA was purified using RNA clean & Concentrator-5 kit (Zymo Research, Cat #R1013) according to the manufacturer instructions and eluted in 21 μL of nuclease free water.
(§3) Inverse electron demand [4+2] Diels-Alder cycloaddition (IEDDA) click reactions were performed in 50 μL at 37° C. or 22° C. (RT) for 3h on mixer at 500 rpm containing 10-15 μg of total RNA, 1 mM final concentration of biotin-benzyl tetrazine (Sigma Aldrich, Cat #793329-5MG) in nuclease free water. Clicked total RNA was purified using RNA clean & Concentrator-5 kit (Zymo Research, Cat #R1013) according to the manufacturer instructions, and RNA was eluted in 21 μL of nuclease free water.
HRP-streptavidin dot blot analysis: All gel reagents were from Bio-Rad. […]

[2] = system: co-culture of mCherry HEK cells and GFP-TgUPRT variant HEK cells; test: Co-culture specificity, dot blot of biotinylated total RNA (CuAAC or IEDDA); details: 5 hours
Experimental: Co-culture of HEK cells containing GFP or mCherry expression plasmids: HEK293 (5×105) cells seeded in 6-well plate. Thirty-six hour post seeding, HEK cells were transfected with 1 μg of single plasmid containing EGFP, mCherry, EGFP-TgUPRT-WT, or EGFP-TgUPRT-Mut. Twenty-four hour post transfection, transiently transfected HEK cells were trypsinized and seeded into a 5 cm plate. Equal amounts of cells (approximately 2×106 in total) where 1×10^6 cells containing GFP or GFP-TgUPRT plasmids and 1×10^6 cells containing mCherry construct) were co-cultured. Three co-culture conditions are Condition (A): mCherry and EGFP, Condition (B): mCherry and EGFP-WT-TgUPRT, and Condition (C): mCherry and EGFP-3×MT-TgUPRT (pKN-CMV-EGFP-TgUPRT-Mut16 or -Mut17). Sixteen hours post seeding, the co-cultures were treated with 5EU and 5VU for 5 hours at 200 μM and 500 μM final concentration, respectively. Cell imaging was performed to assess the overall distribution of green and red cells in each co-culture. Once imaging was done, cells were harvested and subjected to RNA isolation. Total RNA isolated from the co-culture was subjected to biotinylation by two click methods: (1) CuAAC to assess 5EU incorporation in RNA and (2) IEDDA to assess 5VU incorporation in RNA. Subsequently, biotinylated RNA was subjected to dot blot analysis. […]

(−)TgUPRT HEK cells = test: Background incorporation of uracil analogs into RNA, streptavidin-HRP dot blot; details: for incorporation into RNA at higher concentration: 1 mM, mimics in vivo applications, FIG. 4
Experimental: as §1, §2, §3
HRP-streptavidin dot blot analysis: All gel reagents were from Bio-Rad. For dot blot analysis, 2 μg of clicked total RNA was applied onto Hybond-N+ membrane (GE Healthcare) as individual dots and UV-crosslinked (254 nm) to a membrane (Stratalinker UV crosslinker). Membranes were blocked in blocking buffer (0.12 M NaCl, 0.016 M Na2HPO4, 0.008 M NaH2PO4, 0.17 M SDS) and followed by incubation with high sensitivity streptavidin-HRP (Fisher Scientific, Cat #: P121130) at 1:5000 dilution in blocking buffer for 5 minutes. The membrane was washed twice in a Wash A buffer (1:10 dilution of blocking buffer) and twice in Wash B buffer (Tris-saline buffer). […]

T1 sequence (Q26998 whole entry): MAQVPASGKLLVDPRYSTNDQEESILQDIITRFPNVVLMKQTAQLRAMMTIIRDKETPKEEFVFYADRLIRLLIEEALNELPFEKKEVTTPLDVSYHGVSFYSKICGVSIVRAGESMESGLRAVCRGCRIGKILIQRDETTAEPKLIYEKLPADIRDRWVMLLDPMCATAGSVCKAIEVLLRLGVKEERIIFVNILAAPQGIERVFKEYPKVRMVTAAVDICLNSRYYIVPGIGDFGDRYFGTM

SMILES	analog incorporation over time with wild-type TgUPRT ([1]; 200 μM, long periods of incubation, FIG. 9B)	incorporation into RNA mediated by GFP-3×MT-TgUPRT (co-culture dot blot) ([2]; 500 μM 5VU with 200 μM 5EU)	incorporation into RNA at higher concentration ((−)TgUPRT HEK cells)	TgUPRT-dependent incorporation into cellular RNA ([1]; wild-type TgUPRT active site)	incorporation into RNA in the absence of TgUPRT (co-culture dot blot) ([2]; 200 μM 5EU with 500 μM 5VU)	background incorporation into RNA ((−)TgUPRT HEK cells; (−)TgUPRT HEK cells, FIGS. 3A, 3B)
C=Cc1c[nH]c(=O)[nH]c1=O [compound 2, 5-Vinylpyrimidine-2,4(1H,3H)-dione]	did not result in any observed incorporation	substantially	not observed	–	–	–
C#Cc1c[nH]c(=O)[nH]c1=O [compound 1, 5-ethynylpyrimidine-2,4(1H,3H)-dione]	–	–	very robust incorporation	capable of such transformations	detectable signal	low level of background incorporation
